Laboratory results published in a compilation of properties of binary mixtures (doi:10.1016/j.molliq.2017.11.153).

Assay: xn = mol fraction of the nth substance listed
Conditions: 101 kPa

CCCC[n+]1ccccc1.N#C[N-]C#N + CC1COC(=O)O1
Conditions	electrical conductivity [S/m]	viscosity [mPa·s]
288.15 K, x1 = 0.197	0.742	6.99
288.15 K, x1 = 0.3005	1.42	9.49
288.15 K, x1 = 0.4003	1.56	13.97
288.15 K, x1 = 0.4997	1.5	17.55
288.15 K, x1 = 0.6002	1.73	22.95
288.15 K, x1 = 0.7011	1.64	29.62
288.15 K, x1 = 0.7885	1.86	36.03
288.15 K, x1 = 0.9008	1.76	44.07
288.15 K, x1 = 1	1.05	51.49
293.15 K, x1 = 0.1003	0.749	4.23
293.15 K, x1 = 0.197	0.986	5.99
293.15 K, x1 = 0.3005	1.54	8.102
293.15 K, x1 = 0.4003	1.7	11.73
293.15 K, x1 = 0.6002	1.89	18.85
293.15 K, x1 = 0.7011	1.8	24.05
293.15 K, x1 = 0.7885	2.06	29.56
293.15 K, x1 = 0.9008	1.96	36.12
293.15 K, x1 = 1	1.24	41.05
298.15 K, x1 = 0.1003	0.979	3.756
298.15 K, x1 = 0.197	1.25	5.229
298.15 K, x1 = 0.4003	1.92	10
298.15 K, x1 = 0.4997	1.92	12.17
298.15 K, x1 = 0.6002	2.1	15.72
298.15 K, x1 = 0.9008	2.19	29.65
298.15 K, x1 = 1	1.48	33.27
303.15 K, x1 = 0.1003	1.18	3.361
303.15 K, x1 = 0.197	1.49	4.616
303.15 K, x1 = 0.4003	2.13	8.585
303.15 K, x1 = 0.4997	2.16	10.33
303.15 K, x1 = 0.7011	2.3	16.61
303.15 K, x1 = 0.7885	2.54	20.61
303.15 K, x1 = 0.9008	2.44	24.44
303.15 K, x1 = 1	1.75	27.62
308.15 K, x1 = 0.197	1.71	4.109
308.15 K, x1 = 0.4003	2.36	7.468
308.15 K, x1 = 0.4997	2.37	8.918
308.15 K, x1 = 0.6002	2.6	11.36
308.15 K, x1 = 0.7885	2.82	17.47
308.15 K, x1 = 0.9008	2.72	20.45
308.15 K, x1 = 1	2.01	22.9
313.15 K, x1 = 0.197	1.97	3.689
313.15 K, x1 = 0.4003	2.62	6.563
313.15 K, x1 = 0.4997	2.63	7.769
313.15 K, x1 = 0.6002	2.85	9.83
313.15 K, x1 = 0.7011	2.8	12.08
313.15 K, x1 = 0.7885	3.1	14.86
313.15 K, x1 = 0.9008	3	17.22
313.15 K, x1 = 1	2.26	19.3
318.15 K, x1 = 0.197	2.19	3.335
318.15 K, x1 = 0.3005	2.75	4.265
318.15 K, x1 = 0.4003	2.89	5.812
318.15 K, x1 = 0.4997	2.92	6.839
318.15 K, x1 = 0.6002	3.13	8.579
318.15 K, x1 = 0.7885	3.39	12.44
318.15 K, x1 = 0.9008	3.28	14.84
318.15 K, x1 = 1	2.54	16.73
323.15 K, x1 = 0.1003	2	2.291
323.15 K, x1 = 0.4003	3.17	5.183
323.15 K, x1 = 0.4997	3.27	6.066
323.15 K, x1 = 0.6002	3.42	7.559
323.15 K, x1 = 0.9008	3.6	12.65
323.15 K, x1 = 1	2.88	14.44
328.15 K, x1 = 0.1003	2.23	2.121
328.15 K, x1 = 0.197	2.71	2.794
328.15 K, x1 = 0.3005	3.33	3.481
328.15 K, x1 = 0.4003	3.48	4.656
328.15 K, x1 = 0.4997	3.61	5.42
328.15 K, x1 = 0.7011	3.77	8.083
328.15 K, x1 = 0.7885	4.05	9.34
328.15 K, x1 = 0.9008	3.93	11.05
333.15 K, x1 = 0.1003	2.43	1.968
333.15 K, x1 = 0.4003	3.83	4.209
333.15 K, x1 = 0.4997	3.94	4.876
333.15 K, x1 = 0.6002	4.07	6.001
333.15 K, x1 = 0.7885	4.4	8.312
333.15 K, x1 = 0.9008	4.29	9.53
338.15 K, x1 = 0.1003	2.64	1.834
338.15 K, x1 = 0.3005	4.02	2.906
338.15 K, x1 = 0.4003	4.17	3.827
338.15 K, x1 = 0.4997	4.3	4.429
338.15 K, x1 = 0.6002	4.43	5.401
338.15 K, x1 = 0.7011	4.53	6.433
338.15 K, x1 = 0.7885	4.78	7.324
338.15 K, x1 = 0.9008	4.68	8.488
338.15 K, x1 = 1	3.83	9.79
343.15 K, x1 = 0.1003	2.85	1.716
343.15 K, x1 = 0.197	3.42	2.232
343.15 K, x1 = 0.3005	4.37	2.675
343.15 K, x1 = 0.4003	4.53	3.498
343.15 K, x1 = 0.4997	4.68	4.039
343.15 K, x1 = 0.6002	4.83	4.891
343.15 K, x1 = 0.7885	5.21	6.724
343.15 K, x1 = 1	4.21	8.771
348.15 K, x1 = 0.1003	3.07	1.612
348.15 K, x1 = 0.197	3.69	2.089
348.15 K, x1 = 0.4003	4.92	3.213
348.15 K, x1 = 0.4997	5.12	3.704
348.15 K, x1 = 0.6002	5.3	4.454
348.15 K, x1 = 0.7885	5.72	6.247
348.15 K, x1 = 0.9008	5.61	6.724
348.15 K, x1 = 1	4.53	7.884
353.15 K, x1 = 0.1003	3.26	1.519
353.15 K, x1 = 0.197	3.93	1.964
353.15 K, x1 = 0.3005	5.11	2.296
353.15 K, x1 = 0.4997	5.58	3.414
353.15 K, x1 = 0.6002	5.79	4.076
353.15 K, x1 = 0.7011	5.98	4.787
353.15 K, x1 = 0.7885	6.29	5.647
353.15 K, x1 = 0.9008	6.14	6.159
353.15 K, x1 = 1	4.93	7.129

CC1COC(=O)O1 (configuration not stated) + CCCC[n+]1ccccc1.N#C[N-]C#N
x2 = 0
Conditions	viscosity [mPa·s]
288.15 K	3.064
293.15 K	2.738
298.15 K	2.469
303.15 K	2.24
308.15 K	2.042
313.15 K	1.873
323.15 K	1.595
328.15 K	1.464
338.15 K	1.277
343.15 K	1.195
348.15 K	1.122
353.15 K	1.056
